Data from patent US10508120B2, “TYK2 inhibitors and uses thereof” (Nimbus Lakshmi, Inc., priority 2017, dated 2019).
Read-outs that look alike come from different tables or passages of the source.

Tests used:
[1] = molecular target: human TYK2 (JH2domain-pseudokinase) (Homo sapiens (Human), UniProt P29597); test: TYK2 JH2 Domain Binding Assay (KINOMEscan)
Summary of the method: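 Competition binding of an NFkB-DBD fusion of human TYK2 JH2 (G556–D888), expressed in HEK293 and used as crude extract at <0.1 nM, against immobilized ligand beads; 1 h at room temperature in PBS/Tween/DTT/BSA buffer, 0.9% DMSO.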

[2] = molecular target: Tyk2 kinase domain (DH1) (Homo sapiens (Human), UniProt P29597); test: Tyk2 Radioactive Kinase Assay; type: biochemical; details: for inhibition at 10 µM: read-out: Tyk2 JH1% Inhibition @ 10 μM
Chain of Tyk2 kinase domain (DH1) (P29597 897-1176): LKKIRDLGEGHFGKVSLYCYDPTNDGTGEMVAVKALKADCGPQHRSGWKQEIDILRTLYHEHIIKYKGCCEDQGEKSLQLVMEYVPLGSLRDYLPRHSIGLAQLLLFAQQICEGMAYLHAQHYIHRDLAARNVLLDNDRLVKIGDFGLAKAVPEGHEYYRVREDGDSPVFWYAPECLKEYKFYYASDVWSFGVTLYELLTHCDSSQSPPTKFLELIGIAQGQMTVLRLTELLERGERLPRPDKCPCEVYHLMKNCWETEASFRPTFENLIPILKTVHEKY
Experimental: (§1) The Tyk2 and JAK2 radioactive kinase assay measures the percent inhibition at the Tyk2 kinase domain (DH1) and the percent inhibition at the JAK2 kinase domain (JH1). Results of the assay are expressed as percent inhibition at 10 μM.

[3] = molecular target: JAK2 kinase domain (JH1) (Homo sapiens (Human), UniProt O60674); test: JAK2 Radioactive Kinase Assay; type: biochemical; details: for inhibition at 10 µM: read-out: JAK2 JH1% Inhibition @ 10 μM
Chain of JAK2 kinase domain (JH1) (O60674 849-1124): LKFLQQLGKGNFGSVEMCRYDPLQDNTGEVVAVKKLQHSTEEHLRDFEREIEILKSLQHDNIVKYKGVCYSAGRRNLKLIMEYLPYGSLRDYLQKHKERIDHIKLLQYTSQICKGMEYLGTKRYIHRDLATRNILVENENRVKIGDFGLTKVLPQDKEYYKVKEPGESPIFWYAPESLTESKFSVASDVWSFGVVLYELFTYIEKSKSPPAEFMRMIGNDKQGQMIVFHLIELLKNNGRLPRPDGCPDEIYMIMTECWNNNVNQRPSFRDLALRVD
Experimental: as §1

Chain of human TYK2 (JH2domain-pseudokinase) (P29597 556-888): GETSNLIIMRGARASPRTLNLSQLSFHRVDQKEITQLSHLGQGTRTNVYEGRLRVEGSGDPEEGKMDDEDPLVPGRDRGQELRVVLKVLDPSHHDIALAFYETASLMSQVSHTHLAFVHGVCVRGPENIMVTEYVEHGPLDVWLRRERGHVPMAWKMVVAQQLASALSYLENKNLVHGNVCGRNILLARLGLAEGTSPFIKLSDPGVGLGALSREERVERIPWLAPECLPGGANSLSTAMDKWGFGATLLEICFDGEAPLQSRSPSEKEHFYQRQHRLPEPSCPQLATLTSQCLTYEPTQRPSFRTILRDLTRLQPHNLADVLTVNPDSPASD

Kd [1] [nM] | inhibition at 10 µM ([2]; compound at 10 μM, ATP 10 μM) [%] | inhibition at 10 µM ([3]; compound at 10 μM, ATP 10 μM) [%] | SMILES | Tyk2 JH1% Inhibition @ 10 μM ([2]; 10 μM compound, 10 μM ATP) | JAK2 JH1% Inhibition @ 10 μM ([3]; 10 μM compound, 10 μM ATP) | also measured
0.2 to 1 | – | – | CNc1cc(Nc2cccn([C@H]3CCC[C@@H](OC)C3)c2=O)nc2c(C(=O)NCC3(CO)CC3)cnn12 (racemic) [I-862] | – | – | inhibition at 10 µM ([2]; 10 μM compound, 10 μM ATP): < 50%; inhibition at 10 µM ([3]; 10 μM compound, 10 μM ATP): < 50%
> 10 | < 50 | < 50 | Cc1cc(Nc2cc(N)n3ncc(C(N)=O)c3n2)cc(N2CCCC(O)C2)n1 (stereo in doubt) [I-62, (S)-7-amino-5-((2-(3-hydroxypiperidin-1-yl)-6-methylpyridin-4-yl)amino)pyrazolo[1,5-a]pyrimidine-3-carboxamide] | – | – | –
1 to 10 | < 50 | < 50 | Cc1c(Nc2cccnc2OC(C)C)nc2c(C(=O)N[C@@H]3C[C@@H]3F)cnn2c1N (stereo in doubt) [I-206, 7-amino-N-((1R,2S)-2-fluorocyclopropyl)-5-((2-isopropoxypyridin-3-yl)amino)-6-methylpyrazolo[1,5-a]pyrimidine-3-carboxamide] | – | – | –
0.2 to 1 | < 50 | < 50 | CNc1cc(-c2cn(C(C)C)c3ncc(Cl)cc23)nc2c(C(=O)N[C@@H]3C[C@@H]3F)cnn12 (stereo in doubt) [I-254, 5-(5-chloro-1-isopropyl-1H-pyrrolo[2,3-b]pyridin-3-yl)-N-((1R,2S)-2-fluorocyclopropyl)-7-(methylamino)pyrazolo[1,5-a]pyrimidine-3-carboxamide] | – | – | –
< 0.2 | < 50 | < 50 | CNc1cc(Nc2cccnc2OC2CC2)nc2c(C(=O)N[C@@H]3CCC[C@H]3O)cnn12 (stereo in doubt) [I-424, 5-((2-cyclopropoxypyridin-3-yl)amino)-N-(2-hydroxycyclopentyl)-7-(methylamino)pyrazolo[1,5-a]pyrimidine-3-carboxamide] | – | – | –
< 0.2 | < 50 | < 50 | CNc1cc(Nc2cccnc2OC)nc2c(C(=O)N[C@@H]3CCC[C@@H](O)C3)cnn12 (stereo in doubt) [I-459, N-(3-hydroxycyclohexyl)-5-((2-methoxypyridin-3-yl)amino)-7-(methylamino)pyrazolo[1,5-a]pyrimidine-3-carboxamide] | – | – | –
< 0.2 | < 50 | < 50 | CNc1cc(Nc2cccnc2OC2CC2)nc2c(C(=O)N[C@H]3CC[C@H](O)C3)cnn12 (stereo in doubt) [I-461, 5-((2-cyclopropoxypyridin-3-yl)amino)-N-(3-hydroxycyclopentyl)-7-(methylamino)pyrazolo[1,5-a]pyrimidine-3-carboxamide] | – | – | –

More lines, now with the values behind:

SMILES | Kd [1] [nM] | inhibition at 10 µM ([2]; compound at 10 μM, ATP 10 μM) [%] | inhibition at 10 µM ([3]; compound at 10 μM, ATP 10 μM) [%] | Tyk2 JH1% Inhibition @ 10 μM ([2]; 10 μM compound, 10 μM ATP) | JAK2 JH1% Inhibition @ 10 μM ([3]; 10 μM compound, 10 μM ATP) | also measured
CNc1cc(Nc2cccn([C@H]3C[C@@H]3F)c2=O)nc2c(C(=O)N[C@H]3CC[C@H]3O)cnn12 (mixture of isomers) [I-1090, 5-((1-((1S,2S)-2-fluorocyclopropyl)-2-oxo-1,2-dihydropyridin-3-yl)amino)-N-(2-hydroxycyclobutyl)-7-(methylamino)pyrazolo[1,5-a]pyrimidine-3-carboxamide] | < 0.2 | – | – | – | – | inhibition at 10 µM ([2]; 10 μM compound, 10 μM ATP): < 50%; inhibition at 10 µM ([3]; 10 μM compound, 10 μM ATP): < 50%
COc1ncccc1Nc1cc(NCCN2CCOCC2)n2ncc(C(=O)N[C@@H]3C[C@@H]3F)c2n1 (stereo in doubt) [I-388, N-((1R,2S)-2-fluorocyclopropyl)-5-((2-methoxypyridin-3-yl)amino)-7-((2-morpholinoethyl)amino)pyrazolo[1,5-a]pyrimidine-3-carboxamide] | 0.2 to 1 | < 50 | < 50 | – | – | –
[2H]C([2H])([2H])Oc1ncccc1Nc1cc(NC)n2ncc(C(=O)N[C@@H]3CC[C@@H]3O)c2n1 (stereo in doubt) [I-400, N-((1R,2S)-2-hydroxycyclobutyl)-5-((2-(methoxy-d3)pyridin-3-yl)amino)-7-(methylamino) pyrazolo[1,5-a]pyrimidine-3-carboxamide] | 0.2 to 1 | < 50 | < 50 | – | – | –
CNc1cc(-c2nn(C3CCOCC3)c3ncccc23)nc2c(C(=O)N[C@@H]3C[C@@H]3F)cnn12 (stereo in doubt) [I-450, N-((1R,2S)-2-fluorocyclopropyl)-7-(methylamino)-5-(1-(tetrahydro-2H-pyran-4-yl)-1H-pyrazolo[3,4-b]pyridin-3-yl)pyrazolo[1,5-a]pyrimidine-3-carboxamide] | 0.2 to 1 | < 50 | < 50 | – | – | –
CNc1cc(-c2cn(CCN3CCN(C)CC3)c3ncccc23)nc2c(C(=O)N[C@H]3CC[C@H]3O)cnn12 [I-906, N-((1S,2R)-2-hydroxycyclobutyl)-7-(methylamino)-5-(1-(2-(4-methylpiperazin-1-yl)ethyl)-1H-pyrrolo[2,3-b]pyridin-3-yl)pyrazolo[1,5-a]pyrimidine-3-carboxamide] | – | – | – | A (percent inhibition at 10 μM lower than 50) | A (percent inhibition at 10 μM lower than 50) | –
CNc1cc(Nc2cccn(-c3ccccn3)c2=O)nc2c(C(=O)N[C@H]3CC[C@@H]3OC)cnn12 [I-909, N-((1S,2S)-2-methoxycyclobutyl)-7-(methylamino)-5-((2-oxo-2H-[1,2′-bipyridin]-3-yl)amino)pyrazolo[1,5-a]pyrimidine-3-carboxamide] | – | – | – | – | – | inhibition at 10 µM [2]: < 50%; inhibition at 10 µM [3]: < 50%
CNc1cc(Nc2cccn(C(C)C)c2=O)nc2c(C(=O)N[C@H]3CCC[C@H](O)C3)cnn12 [I-919, 5-N-(3-hydroxycyclohexyl)-5-((1-isopropyl-2-oxo-1,2-dihydropyridin-3-yl)amino)-7-(methylamino)pyrazolo[1,5-a]pyrimidine-3-carboxamide] | – | – | – | A (percent inhibition at 10 μM lower than 50) | A (percent inhibition at 10 μM lower than 50) | –
CNc1cc(-c2cn(CCN3CCN(C)CC3)c3ncccc23)nc2c(C(=O)N[C@H]3CC[C@@H]3O)cnn12 [I-920, N-((1S,2S)-2-hydroxycyclobutyl)-7-(methylamino)-5-(1-(2-(4-methylpiperazin-1-yl)ethyl)-1H-pyrrolo[2,3-b]pyridin-3-yl)pyrazolo[1,5-a]pyrimidine-3-carboxamide] | – | – | – | A (percent inhibition at 10 μM lower than 50) | A (percent inhibition at 10 μM lower than 50) | –
CNc1cc(Nc2cccn([C@H]3CC[C@@H]3OC)c2=O)nc2c(C(=O)NC3CC3)cnn12 [I-936] | – | – | – | A (percent inhibition at 10 μM lower than 50) | A (percent inhibition at 10 μM lower than 50) | –
CNc1cc(Nc2cccn(-c3ccccc3F)c2=O)nc2c(C(=O)N[C@H]3CC[C@H]3O)cnn12 [I-939] | – | – | – | A (percent inhibition at 10 μM lower than 50) | A (percent inhibition at 10 μM lower than 50) | –
CNc1cc(Nc2cccn(-c3ccccc3F)c2=O)nc2c(C(=O)N[C@@H]3CC[C@H]3O)cnn12 [I-940] | – | – | – | A (percent inhibition at 10 μM lower than 50) | A (percent inhibition at 10 μM lower than 50) | –
CNc1cc(Nc2cccn(-c3cccc(F)c3)c2=O)nc2c(C(=O)N[C@H]3CC[C@H]3O)cnn12 [I-945] | – | – | – | – | – | inhibition at 10 µM ([2]; 10 μM compound, 10 μM ATP): < 50%; inhibition at 10 µM ([3]; 10 μM compound, 10 μM ATP): < 50%
CNc1cc(Nc2cccc(N3CCCC3=O)n2)nc2c(C(=O)N[C@@H]3CC[C@@H]3O)cnn12 [I-970] | – | – | – | – | – | inhibition at 10 µM ([2]; 10 μM compound, 10 μM ATP): < 50%; inhibition at 10 µM ([3]; 10 μM compound, 10 μM ATP): < 50%
CNc1cc(Nc2cccn(C(C)C)c2=O)nc2c(C(=O)N[C@H]3CC[C@H]3O)cnn12 [I-977] | – | – | – | A (percent inhibition at 10 μM lower than 50) | A (percent inhibition at 10 μM lower than 50) | –
CNc1cc(Nc2cccn(C(C)C)c2=O)nc2c(C(=O)N[C@@H]3CC[C@H]3O)cnn12 [I-981] | – | – | – | A (percent inhibition at 10 μM lower than 50) | A (percent inhibition at 10 μM lower than 50) | –
CNc1cc(Nc2cccn([C@@H]3CCC[C@@H](O)C3)c2=O)nc2c(C(=O)N[C@@H]3C[C@@H]3F)cnn12 [I-983] | – | – | – | A (percent inhibition at 10 μM lower than 50) | A (percent inhibition at 10 μM lower than 50) | –
CNc1cc(Nc2cccn([C@@H]3CCC[C@H](OC)C3)c2=O)nc2c(C(=O)N[C@@H]3CC[C@H]3O)cnn12 [I-994] | – | – | – | A (percent inhibition at 10 μM lower than 50) | A (percent inhibition at 10 μM lower than 50) | –
CNc1cc(Nc2cccn([C@H]3CC[C@@H]3OC)c2=O)nc2c(C(=O)N[C@@H]3C[C@@H]3F)cnn12 [I-1021] | – | – | – | – | – | inhibition at 10 µM ([2]; 10 μM compound, 10 μM ATP): < 50%; inhibition at 10 µM ([3]; 10 μM compound, 10 μM ATP): < 50%
CNc1cc(Nc2cccn([C@H]3CCC[C@H](OC)C3)c2=O)nc2c(C(=O)NCC3(CO)CC3)cnn12 [I-1086] | – | – | – | A (percent inhibition at 10 μM lower than 50) | A (percent inhibition at 10 μM lower than 50) | –
CNc1cc(Nc2cccn([C@H]3C[C@@H]3F)c2=O)nc2c(C(=O)NCC3(CO)CC3)cnn12 [I-1121, 5-((1-((1S,2S)-2-fluorocyclopropyl)-2-oxo-1,2-dihydropyridin-3-yl)amino)-N-((1-(hydroxymethyl)cyclopropyl)methyl)-7-(methylamino)pyrazolo[1,5-a]pyrimidine-3-carboxamide] | – | – | – | A (percent inhibition at 10 μM lower than 50) | A (percent inhibition at 10 μM lower than 50) | –
